Measurements reported in US20180207099A1, “NON-[…] FOR THE MIC[…] DIGOXIN” (priority 2015, published 2018).

Experiment: Particle size of micronized digoxin obtained by the non-mechanical process
Format: physicochemical
Details: for >90% of the particles (number distribution); digoxin precipitated per Example 1
Description: The digoxin thus obtained has a high purity and is ready to be incorporated in the usual pharmaceutical formulations, typically tablets; it has particle size of 20-30 micrometers for at least 90% of the particles, and is exempt from degradation products, as evident by a wholly neutral colour, and further confirmable analytically. In the present invention, the particle size distribution is meant as “number distribution” (thus not “volume distribution” or “mass distribution”); accordingly, any expressions of the type “x-y micrometers for at least m % of the particles” describes a particle distribution characterized in that at least m % of the number of particles making up the product have a size comprised between x and y micrometers; relevant particle size values can be measured by usual techniques, including laser diffraction, dynamic light scattering, dynamic image analysis, suitably equipped with data processing systems. The obtained digoxin can be formulated with common excipients. Suitable excipients are cellulose products like microcrystalline cellulose, cellulose ethers like methylcellulose, ethylcellulose, hydroxyethylcellulose, crosslinked polymers (e.g. polyplasdone XL, hyaluronic acid or alginic acid cross-linked with urea), gums from plants, etc. Common diluents like mannitol, fructose, as well as compression aids like magnesium stearate, can also be used. […]

Which particle size does the source give for `C[C@H]1O[C@@H](O[C@H]2[C@@H](O)C[C@H](O[C@H]3[C@@H](O)C[C@H](O[C@H]4CC[C@@]5(C)[C@H](CC[C@@H]6[C@@H]5C[C@@H](O)[C@]5(C)[C@@H](C7=CC(=O)OC7)CC[C@]65O)C4)O[C@@H]3C)O[C@@H]2C)C[C@H](O)[C@@H]1O` [digoxin] here?
Its particle size is 20-30 micrometers.
